The source of these data is article PMC9959258, “Discovery of Polyphenolic Natural Products as SARS-CoV-2 M^pro Inhibitors for COVID-19” (Pharmaceuticals, 2023).

“Also recorded” adds a separate entry of the source. Where two headings read alike, the source gives them in different places.

One data set addresses SARS-CoV-2 M^pro (Severe acute respiratory syndrome coronavirus 2, UniProt P0DTD1). Kind of data set: biochemical. In kind it is biochemical. Particulars: for inhibition at 10 µM: read-out: SARS-CoV-2 M^pro % Inhibition at 10 μM; for M^pro inhibition, result in words: tested at 10 µM.
Data set [1] relates to SARS-CoV-2 isolate NK, Pango lineage B.1.513. Nature of the data set: microbe, parasite or virus in culture. In kind it is cell-based. Particulars: for inhibition of viral titers: 10 µM; for EC50: read-out: EC50 antiviral activity; for inhibition at 10 µM: Severe acute respiratory syndrome coronavirus 2, Calu-3, 24 h, read-out: inhibition of viral titers.
Data set [2] can be described thus: Dynamic light scattering (DLS) for colloidal particle formation. To be noted: 31.6 µM, 50 mM KPi pH 7.0, 1% DMSO. In kind it is physicochemical.
Data set [3] addresses T1, malate dehydrogenase (MDH) (Sus scrofa, UniProt P00346).
T1 sequence (P00346 25-338): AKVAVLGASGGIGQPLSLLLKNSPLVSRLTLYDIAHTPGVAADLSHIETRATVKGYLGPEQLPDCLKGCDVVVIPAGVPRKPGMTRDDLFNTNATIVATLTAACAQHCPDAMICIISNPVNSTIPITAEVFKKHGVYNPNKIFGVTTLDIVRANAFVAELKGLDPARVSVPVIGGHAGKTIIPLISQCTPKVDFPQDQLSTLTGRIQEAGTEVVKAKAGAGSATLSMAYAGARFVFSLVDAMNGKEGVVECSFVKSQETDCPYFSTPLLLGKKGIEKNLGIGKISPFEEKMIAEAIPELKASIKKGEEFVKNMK
In kind it is biochemical. To be noted: 31.6 µM, with or without 0.01% (v/v) Triton X-100.

The test system of the next data set is nitric oxide synthesis. Particulars: background statement, no reference given; read-out: IC50 for reduction of nitric oxide synthesis; cited from earlier work.
For a further data set, the system named is fatty acid synthase. To be noted: background statement, no reference given; cited from earlier work.
For data set [4], the system named is prostaglandin E2 (PGE2) synthesis. To be noted: background statement, no reference given; read-out: IC50 for reduction of prostaglandin E2 synthesis; cited from earlier work.
The next data set concerns HIV-1 protease. To be noted: background statement, no reference given; cited from earlier work.
The mark [5] stands for this setting: FRET assay, 50 nM M^pro, 10 min preincubation.
[6] abbreviates: compound at 10 μM, FRET assay, 50 nM M^pro.
Setting [7] is: Severe acute respiratory syndrome coronavirus 2, 24 h.

With `C=C(C)C1CCC2=CC(=O)CC(C)C2(C)C1` (single isomer, unassigned; (+)) [(+)-Nootkaton], the IC50 – broadly, the concentration that gives 50% inhibition – at SARS-CoV-2 M^pro (setting [5]) is greater than 10 µM. For the same molecule, on SARS-CoV-2 M^pro (setting [6]), the inhibition – broadly, the drop in the measured response relative to a control, in per cent – at 10 µM was 32%.

The molecule `C=C1C(=O)OC2C1CCC(C)=CCCC1(C)OC21` (single isomer, unassigned; (-)) [(−)-Parthenolide] showed an IC50 against SARS-CoV-2 M^pro (setting [5]) greater than 10 µM. Also, the inhibition at 10 µM on SARS-CoV-2 M^pro (setting [6]) stood at 20.1%.

Molecule `CCOC1=C(O)C(=O)O[C@@H]1[C@@H](O)CO` [3-O-Ethyl-L-ascorbic acid] registered an IC50 against SARS-CoV-2 M^pro greater than 10 µM. For the same molecule, the inhibition at 10 µM at SARS-CoV-2 M^pro (setting [6]) was 24.9%.

`CC1=C2C3OC(=O)C(C)C3CCC2(C)C=CC1=O` (stereo not drawn) [(−)-α-Santonin] displayed an IC50 against SARS-CoV-2 M^pro (setting [5]) greater than 10 µM. Further, on SARS-CoV-2 M^pro (setting [6]), the inhibition at 10 µM was determined as 24.1%.

On to `C=C1C(=O)OC2CC3(C)CCCC(C)C3=CC12` (stereo not shown) [Alantolacton], for which the IC50 against SARS-CoV-2 M^pro (setting [5]) was greater than 10 µM. Moreover, the inhibition at 10 µM at SARS-CoV-2 M^pro (setting [6]) is 27.6%.

Take `C=C1C(=O)O[C@@H]2/C=C(\C)CC/C=C(\C)CC[C@@H]12` [Costunolide]: the IC50 against SARS-CoV-2 M^pro (setting [5]) is greater than 10 µM. Besides, the inhibition at 10 µM on SARS-CoV-2 M^pro (setting [6]) turned out to be 28%.

In turn, `C=C1CC[C@H]2C(=C)CC[C@H]3C(=C)C(=O)O[C@@H]3[C@@H]12` [Dehydrocostus lactone] yielded an IC50 against SARS-CoV-2 M^pro (setting [5]) greater than 10 µM. For the same molecule, on SARS-CoV-2 M^pro (setting [6]), the inhibition at 10 µM turned out to be 13.4%.

Consider `O=c1c(O)c(-c2ccc(O)c(O)c2)oc2cc(O)ccc12` [Fisetin], for which the IC50 against SARS-CoV-2 M^pro (setting [5]) is greater than 10 µM. Besides, on SARS-CoV-2 M^pro (setting [6]), the “SARS-CoV-2 M^pro % Inhibition at 10 μM” value is −11.21%.

As to `CC(C)=CCC[C@]1(C)C=Cc2c(O)c3c(c(CC=C(C)C)c2O1)O[C@]12C(=C[C@@H]4C[C@H]1C(C)(C)O[C@@]2(C/C=C(/C)C(=O)O)C4=O)C3=O` [Gambogic acid], the IC50 at SARS-CoV-2 M^pro (setting [5]) was greater than 10 µM. Further, the inhibition at 10 µM at SARS-CoV-2 M^pro (setting [6]) is 22.8%.

On SARS-CoV-2 M^pro (setting [5]), `O=C1O[C@H]([C@@H](O)CO)C(O)=C1O` [L-Ascorbic acid] had an IC50 greater than 10 µM. In addition, the inhibition at 10 µM on SARS-CoV-2 M^pro (setting [6]) came to 22.2%.

In the case of `O=C(OC1Cc2c(O)cc(O)cc2OC1c1cc(O)c(O)c(O)c1)c1cc(O)c(O)c(O)c1` [L-Epigallocatechin gallate], in data set [1], the “inhibition of viral titers” value is 81.4% and the EC50 (in general, the concentration that produces a half-maximal response) came to 0.115 µM. In addition, the inhibition at 10 µM on SARS-CoV-2 M^pro (setting [6]) was 105%. Further, the “M^pro inhibition, result in words” value at SARS-CoV-2 M^pro was “completely inhibit the SARS-CoV-2 M^pro activity”. The “colloidal-like particle formation by DLS” value in data set [2] (listed as ECGC) was “do not form colloidal-like particles”. Further, the “colloidal-like particle formation by DLS” value in data set [2] (listed as EGCG) was “neither of these compounds produced colloidal-like particles”. Moreover, the “MDH inhibition with 0.01% Triton X-100 (detergent reversibility)” value in data set [3] is given as “reversed in the presence of detergent”.

`COC(=O)C1=CO[C@@H](O[C@@H]2O[C@H](CO)[C@@H](O)[C@H](O)[C@H]2O)[C@@H]2[C@@H](C)[C@@H](O)C[C@H]12` [Loganin]: on SARS-CoV-2 M^pro, the IC50 was greater than 10 µM. Further, the inhibition at 10 µM at SARS-CoV-2 M^pro (setting [6]) stood at 29.4%.

`O=c1cc(-c2ccc(O)c(O)c2)oc2cc(O)cc(O)c12` [Luteoline] showed an IC50 against SARS-CoV-2 M^pro (setting [5]) greater than 10 µM. Also, the inhibition at 10 µM on SARS-CoV-2 M^pro (setting [6]) was found to be 9.65%. Moreover, at SARS-CoV-2 M^pro, the “M^pro inhibition, result in words” value is “unable to inhibit M^pro”.

As for `CC(C)C(=O)OC[C@H]1O[C@@H](n2ccc(NO)nc2=O)[C@H](O)[C@@H]1O` [Molnupiravir, reference compound], the EC50 in data set [1] (setting [7]) was 0.00545 µM.

`C=C1C(=O)[C@]23[C@H](O)[C@H]1CC[C@H]2[C@@]12CO[C@]3(O)[C@@H](O)[C@@H]1C(C)(C)CC[C@@H]2O` [Oridonin]: the EC50 in data set [1] (setting [7]) came to 0.0128 µM. The inhibition at 10 µM worked out at 89% in data set [1] and 81.9% at SARS-CoV-2 M^pro (setting [6]).

On SARS-CoV-2 M^pro (setting [5]), `CCCCCCCCCCC[C@@H](C[C@@H]1OC(=O)[C@H]1CCCCCC)OC(=O)[C@H](CC(C)C)NC=O` [Orlistat, reference compound] yielded an IC50 greater than 10 µM. Moreover, the inhibition at 10 µM at SARS-CoV-2 M^pro (setting [6]) amounted to 21%.

With `COc1ccc2ccc(=O)oc2c1CC=C(C)C` [Osthole], at SARS-CoV-2 M^pro (setting [5]), the IC50 was greater than 10 µM. In addition, the inhibition at 10 µM on SARS-CoV-2 M^pro (setting [6]) amounted to 4.98%.

On to `Oc1cc(O)cc(/C=C/c2ccc(O)c(O)c2)c1` [Piceatannol], for which the EC50 in data set [1] (setting [7]) was 0.00342 µM. For the same molecule, the results for the inhibition at 10 µM (in data set [1]; on SARS-CoV-2 M^pro (setting [6])) were 81% and 76.9%, respectively. At SARS-CoV-2 M^pro (setting [5]), this molecule displayed an IC50 of 2.03 µM.

Take `C[C@@H]1O[C@@H](Oc2c(-c3ccc(O)c(O)c3)oc3cc(O)cc(O)c3c2=O)[C@H](O)[C@H](O)[C@H]1O` [Quercitrin]: the IC50 against SARS-CoV-2 M^pro (setting [5]) was greater than 10 µM. The inhibition at 10 µM on SARS-CoV-2 M^pro (setting [6]) was 2.42%. Further, the “M^pro inhibition, result in words” value on SARS-CoV-2 M^pro is given as “unable to inhibit the M^pro enzyme”.

For the molecule `C[C@]12CC[C@H](O)C[C@H]1CC[C@@H]1[C@@H]2CC[C@]2(C)[C@@H](c3ccc(=O)oc3)C[C@H]3O[C@]132` [Resibufogenin], on SARS-CoV-2 M^pro, the IC50 is greater than 10 µM and the inhibition at 10 µM amounted to 6.32%.

For `Oc1ccc(/C=C/c2cc(O)cc(O)c2)cc1` [Resveratrol], the IC50 against SARS-CoV-2 M^pro (setting [5]) was greater than 10 µM. The inhibition at 10 µM at SARS-CoV-2 M^pro (setting [6]) was found to be 5.96%. Further, the “M^pro inhibition, result in words” value at SARS-CoV-2 M^pro was “unable to inhibit the enzyme”.

With `O=c1c(O)c(-c2cc(O)c(O)c(O)c2)oc2cc(O)ccc12` [Robinetin], in data set [1], the “inhibition of viral titers” value turned out to be 89.6% and the EC50 is 0.0013 µM. For the same molecule, on SARS-CoV-2 M^pro (setting [5]), half-maximal inhibition (IC50) required 0.96 µM. For the same molecule, the inhibition at 10 µM on SARS-CoV-2 M^pro (setting [6]) amounted to 86.1%. In addition, the “colloidal-like particle formation by DLS” value in data set [2] is listed as “neither of these compounds produced colloidal-like particles; also recorded: do not form colloidal-like particles”. Moreover, in data set [3], the “MDH inhibition with 0.01% Triton X-100 (detergent reversibility)” value is “reversed in the presence of detergent”.

For the molecule `O=C(/C=C/c1ccc(O)c(O)c1)O[C@H](Cc1ccc(O)c(O)c1)C(=O)O` [Rosmarinic acid], in data set [1] (setting [7]), the EC50 is 0.0167 µM. The inhibition at 10 µM in data set [1] worked out at 81%; at SARS-CoV-2 M^pro (setting [6]) it was 50.6%. The molecule also yielded an IC50 against SARS-CoV-2 M^pro (setting [5]) of 6.84 µM.

Consider `O=C(/C=C/c1ccc(O)c(O)c1/C=C/c1ccc(O)c(O)c1)O[C@H](Cc1ccc(O)c(O)c1)C(=O)O` [Salvianolic acid A], for which the inhibition at 10 µM at SARS-CoV-2 M^pro (setting [6]) was 50.8%.

On to `O=c1cc(-c2ccc(O)cc2)oc2cc(O)c(O)c(O)c12` [Scutellarein], for which the EC50 in data set [1] (setting [7]) is 0.00257 µM. Moreover, the inhibition at 10 µM in data set [1] came to 87%; on SARS-CoV-2 M^pro (setting [6]) it was 76.1%.

Take `COC1=C[C@@H]2[C@@H]3Cc4ccc(OC)c(O)c4[C@]2(CCN3C)CC1=O` [Sinomenine]: at SARS-CoV-2 M^pro, the IC50 was greater than 10 µM and the inhibition at 10 µM came out at 4.8%.

Turning to `Cc1coc2c1C(=O)C(=O)c1c-2ccc2c(C)cccc12` [Tanshinone I], the inhibition at 10 µM on SARS-CoV-2 M^pro (setting [6]) came out at 7.03%.

In the case of `O=c1cc(-c2cc(O)c(O)c(O)c2)oc2cc(O)cc(O)c12` [Tricetin], the half-maximal inhibitory concentration (IC50) against SARS-CoV-2 M^pro (setting [5]) worked out at 7.84 µM. The inhibition at 10 µM at SARS-CoV-2 M^pro (setting [6]) was 72.3%.

In the case of `COc1c(O)cc2oc3cc(O)c(CC=C(C)C)c(O)c3c(=O)c2c1CC=C(C)C` [α-Mangostin], the IC50 in the data set with nitric oxide synthesis was 11.1 µM; with fatty acid synthase it was 5.54 µM; in data set [4], 12.4 µM; against SARS-CoV-2 M^pro (setting [5]), 25.1 µM; in the data set with HIV-1 protease it was 5.12 µM.

Regarding Myricitrin, the “SARS-CoV-2 M^pro % Inhibition at 10 μM” value on SARS-CoV-2 M^pro (setting [6]) turned out to be 11.67%. For the same molecule, the “M^pro inhibition, result in words” value at SARS-CoV-2 M^pro was “did not, however, inhibit M^pro”; on SARS-CoV-2 M^pro (listed as myricitrin), “did not inhibit M^pro”.
